“Also recorded” adds a separate entry of the source.
Assays:
serum TK = experiment: Serum TK measurement with tritium labelled AZT; type: biochemical, human; conditions: 16 clinical patient serum samples, 4 h at 37° C.
Protocol: In order to determine if serum TK can use AZT as substrate, an experiment was performed with 16 clinical patient serum samples (20 μl) mixed with 2 μL ^3H-AZT (Ci/mmol Moraveck Inc, USA) and 20 μL reaction mixture containing 10 mM Tris-HCl (pH 7.6), 5 mM ATP, 5 mM MgCl2, 3.5 mM NaF, 2 mM DTT. The assay was performed 4 h at 37° C. and the amount of AZTMP formed was determined by DE 51 ion exchange paper method as described (9). Previous experiments had established that this amount of serum gave a linear reaction during the time period tested.

TK1 = molecular target: T1, TK1 (Homo sapiens, UniProt P04183); conditions: almost the same relative efficiency as Thymidine; cited from earlier work
T1 sequence (P04183 1-234): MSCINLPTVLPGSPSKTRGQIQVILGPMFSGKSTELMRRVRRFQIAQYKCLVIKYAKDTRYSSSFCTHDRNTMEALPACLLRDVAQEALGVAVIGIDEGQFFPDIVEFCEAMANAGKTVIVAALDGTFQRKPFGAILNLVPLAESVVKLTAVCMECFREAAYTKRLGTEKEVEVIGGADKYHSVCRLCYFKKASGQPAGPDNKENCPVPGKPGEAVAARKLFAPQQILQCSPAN

[1] = system: chicken anti-AZTMP antibodies; experiment: Competitive assay for anti-AZTMP antibody specificity (AZXMP hapten coated plates); type: binding; conditions: increasing amounts of competitor added to anti-AZTMP antibody solution; FIG. 2
Protocol: FIG. 2 Anti-AZTMP antibody specificity. Dose response curve for the competitive assay, according to example 1, between free AZTMP (left curve, denoted AZTMP) or AZT (right curve, denoted AZT) and Immobilised hapten, AZXMP (see FIG. 1) illustrating the specificity of chicken anti-AZTMP antibodies. Y-axis: original absorbance values (B) are normalised against values obtained in the absence of competitor (B0) to obtain (B/B0).
Antibody specificity and titre were evaluated using the competitive assay format described in example 4. To evaluate non-specific binding the antibody was substituted with diluent. Antibody specificity and titre was also evaluated using an assay whereby AZXMP hapten was coated to plates. AZXMP was conjugated to BSA using GA as linker and subsequently coated to the microtiter plates. In this assay, 100 μl of serially diluted antibody solutions were first incubated with AZXMP coated wells for 1 h at RT.
Wells of microtiter plates were washed three times with PBST (PBS plus 0,05% Tween 20). 100 μL of secondary antibody (diluted Horse Radish Peroxidase (HRP)-labelled anti-Goat IgG solution or anti-IgY antibody) was added and incubated for 30 min at room temperature. After 3 times washing with 250 μl PBST, bound antibody complexes were detected using TMB as substrate. The induced colour reaction was stopped after 5 min using 1M H2SO4 and detected at 450 nm. […]

TK2 = molecular target: T2, TK2 (Homo sapiens, UniProt O00142); conditions: cited from earlier work
T2 sequence (O00142 34-265): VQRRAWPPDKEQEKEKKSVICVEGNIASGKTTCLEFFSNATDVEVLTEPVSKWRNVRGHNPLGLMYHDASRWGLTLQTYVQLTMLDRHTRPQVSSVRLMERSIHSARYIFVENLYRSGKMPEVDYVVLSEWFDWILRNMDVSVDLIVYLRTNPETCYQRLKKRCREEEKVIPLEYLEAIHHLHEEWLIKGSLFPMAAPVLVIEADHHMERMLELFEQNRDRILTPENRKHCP

[2] = blood serum or cell extracts; cited from earlier work
thymidine phosphatase = molecular target: T3, thymidine phosphatase (Homo sapiens, UniProt P19971); conditions: in blood serum or in cell extracts; cited from earlier work
T3 sequence (P19971 11-482): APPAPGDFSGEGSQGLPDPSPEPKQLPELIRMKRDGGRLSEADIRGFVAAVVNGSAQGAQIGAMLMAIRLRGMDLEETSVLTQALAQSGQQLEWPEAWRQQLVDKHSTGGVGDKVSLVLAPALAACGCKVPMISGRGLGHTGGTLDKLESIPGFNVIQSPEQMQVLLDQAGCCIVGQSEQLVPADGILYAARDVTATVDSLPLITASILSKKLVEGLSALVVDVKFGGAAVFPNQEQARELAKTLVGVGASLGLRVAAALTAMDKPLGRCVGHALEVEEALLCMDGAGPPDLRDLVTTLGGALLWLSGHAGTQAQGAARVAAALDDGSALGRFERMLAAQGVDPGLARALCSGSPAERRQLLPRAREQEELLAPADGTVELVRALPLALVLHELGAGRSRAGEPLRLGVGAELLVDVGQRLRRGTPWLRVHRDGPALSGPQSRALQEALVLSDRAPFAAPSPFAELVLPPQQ

phosphatases = experiment: TK ELISA with UMP in substrate buffer to inhibit phosphatase activity; type: biochemical, human; conditions: 1 mM UMP; two of four tested sera
Protocol: A potential problem for the analysis of a kinase activity in patient sera is the presence of phosphatase activity in the same sera to drive the reverse reaction (dephosphorylaUon). One way to inhibit the phosphatase is to include UMP in the substrate buffer to protect AZTMP from being dephosphorylated to AZT.
Substrate buffers containing 172 mM HEPES, 62 mM NaOH, 62 mM MgCl2*6H2O, 34 mM KCl, 142 mM Mannitol, 7,8 mM ATP, 12 mM DTE, and 25 μg/ml AZT were prepared—with variable concentrations UMP, i.e. 0, 0.1, 1 or 5 mM UMP.
A TK1 standard preparation 80 U/L (in heat inactivated fetal calf serum) was diluted in 9 g/L deionized-water, also used as zero standard level, to give further standard levels of 40, 20, 10, 5 and 2,5 U/L, respectively. Four human sera were also assayed. Two sera were from healthy blood donors and two sera from patients monitored with TK REA.
Next the TK reactions were performed by adding 50 μl of substrate buffer together with 50 μL of TK1 standard/or patient serum sample in non-coated microtitre wells.
The plate was incubated for 60 minutes at 37° C. […]
For the detection 50 μl were transferred to a plate which plate was coated with 1 μg/well rabbit anti chicken IgY (Sigma, MO, USA). […] The TMB reaction was stopped with 100 μl acid TMB stop and the absorbance read at 450 nm.

## Cc1cn([C@H]2C[C@H](N=[N+]=[N-])[C@@H](CO)O2)c(=O)[nH]c1=O [AZT, 3′-azido-3′-deoxythymidine]
Serum TK
  use as substrate by serum TK: can efficiently use AZT as substrate; also recorded: selective, efficient and stable substrates
TK1
  substrate quality for TK1: good substrate for TK1
[1]
  competition with immobilised AZXMP for antibody binding: not able to compete out AZXMP
TK2
  phosphorylation by TK2: low capacity to phosphorylate AZT
[2]
  metabolic stability: stable metabolites
Thymidine phosphatase
  substrate for thymidine phosphatase: does not use AZT as a substrate

## Cc1cn([C@H]2C[C@H](N=[N+]=[N-])[C@@H](COP(=O)(O)O)O2)c(=O)[nH]c1=O [AZTMP, AZT-5′-monophosphate]
[2]
  metabolic stability: stable metabolites

## O=c1ccn([C@@H]2O[C@H](COP(=O)(O)O)[C@@H](O)[C@H]2O)c(=O)[nH]1 [UMP, Uridine monophosphate]
phosphatases
  effect on TK values of tested sera: significantly higher TK values
